Where two headings read alike, the source gives them in different places. Square brackets hold non-standard residues; d marks the D form. Peptide text beside a SMILES is read from it. dPhe(F5) = N[C@H](Cc1c(F)c(F)c(F)c(F)c1F)C(=O)O; dBpa = N[C@H](Cc1ccc(C(=O)c2ccccc2)cc1)C(=O)O; dCha = N[C@H](CC1CCCCC1)C(=O)O
Key:
[1] = In vivo half life in mouse serum (HPLC); conditions: 40 mg/kg ip, read-out: Half-life after 40 mg/kg intra-peritoneal injection (converted)
calreticulin = experiment: Cell surface calreticulin exposure in CT26WT cells (FACS); assay type: cell-based, murine; conditions: 10-20 uM CDDP with 0.5 μM CBP501, 45 min
Method: Two days later, the cells were collected and analyzed by FACS with specific calreticulin antibody and propidium iodide (n=3). Samples were compared by student's t-test. *P<0.05 **P<0.01, compared with untreated cells, and ^†P<0.05, ^††P<0.01, compared with the corresponding CDDP alone.
After changing with fresh drug-free medium, cells were incubated for 24, 48, or 72 hours for Immunoblotting analysis of phospho-eIF2-alpha, for calreticulin analysis by FACS, or for HMGB1 ELISA.
Cells were collected and washed with PBS, followed by fixation with PBS containing 0.25% PFA for 5 minutes. The fixed cells were washed twice with ice-cold PBS and treated on ice with anti-calreticulin antibody (abcam) diluted with PBS containing 2% FBS (1/200) for 30 minutes. The primary antibody were removed with twice PBS containing 2% FBS wash and treated with alexa488-condjugated secondary antibody diluted with PBS containing 2% FBS (1/500) for 30 minutes at RT. The secondary antibody were removed with twice PBS and treated on ice with propidium iodide (1 ug/ml) for more than 5 minutes, followed by FACS analysis using FACSCalibur.

[2] = system: thrombin/antithrombin complex; experiment: Thrombin/antithrombin complex in plasma of LPS treated mice (ELISA); assay type: in vivo, mouse; conditions: C57BL/6 mice, CBP501 7.5 mg/kg, plasma 3 hours after
Excerpt: The data were obtained in each condition out of four animals.

HUVEC = experiment: Growth of normal human umbilical endothelial cells (HUVEC); assay type: cell-based; conditions: peptide by itself
Method: Similar studies were performed using normal human umbilical endothelial cells (HUVEC).

CT26WT = experiment: Analysis of tumor infiltrating lymphocytes in CT26WT tumors (flow cytometry); assay type: in vivo, mouse; conditions: day 11
Method: CT26WT were subcutaneously inoculated into the left flank of female Balb/c mice. […] Then, tumors were extracted from mice on day 11, and digested with triple enzyme mix (collagenase, hyaluronidase and DNase) to obtain single cell suspension. The cells were treated with FcR blocker and stained with specific antibody for multi-color flow cytometry analysis including CD4, CD8, CD45, CD11b, Ly6G, Ly6C, F4/80, MHC class II and CD206. Quantitative data (FIG. 32) are shown as mean values with SEM (n=3-4 mice/group). *: p<0.05, **: p<0.01, n.s.: not significant (unpaired, 2-tailed student's t-test), as compaired with cells from vehicle-treated or PD-1-treated tumor.

HCT116 = experiment: G2 checkpoint abrogation by CBP501 combined with cis-platin, flow cytometry; assay type: cell-based; conditions: HCT116, colon, hMLH1; cis-platin 3 μg/ml 3 hr, then 45 hr
Method: (§1) The medium was aspirated, fresh medium without these compounds was added and the cells were incubated for an additional 45 hr. The cells including floating cells were harvested using trypsin-EDTA solution, incubated with Krishan's solution and analyzed for DNA content by flow cytometry as previously described.

HT-29 = experiment: as above; assay type: cell-based; conditions: HT-29, colon; cis-platin 3 μg/ml 3 hr, then 45 hr
Method: as §1

MK45 = experiment: as above; assay type: cell-based; conditions: MK45, stomach; cis-platin 3 μg/ml 3 hr, then 45 hr
Method: as §1

SW620 = experiment: as above; assay type: cell-based; conditions: SW620, colon; cis-platin 3 μg/ml 3 hr, then 45 hr
Method: as §1

NCI-H520 = experiment: as above; assay type: cell-based; conditions: NCI-H520, lung, SCC; cis-platin 3 μg/ml 3 hr, then 45 hr
Method: as §1

SK-OV-3 = experiment: as above; assay type: cell-based; conditions: SK-OV-3, ovary, hMLH1; cis-platin 3 μg/ml 3 hr, then 45 hr
Method: as §1

NCI-H226 = experiment: as above; assay type: cell-based; conditions: NCI-H226, lung, SCC; cis-platin 3 μg/ml 3 hr, then 45 hr
Method: as §1

[3] = Mouse serum treatment analysis (residual CBP501 by HPLC); assay type: in vitro ADME; conditions: CBP501 10 mM, 37 degree
CT26WT cells = conditions: 3 hours treatment, two days later
MIAPaCa2 = conditions: three hours exposure
Method: The medium was changed and incubated an additional 24, 48 or 72 hour. Following incubation, 20 μl of alamarBlue 90% reagent was added to each well for another 6 hours for detection of cell viability by fluorescent intensity. Fluorescent intensity was measured using a Spectrafluor Plus plate reader with exitation 530 nm and emission 590 nm. The IC50 was calculated (Table 6).

neutrophils = experiment: NET formation by activated neutrophils (elastase activity); assay type: cell-based, human; conditions: 1 μM CBP501; PMA, A23187 or LPS
Excerpt: Referring to FIG. 17, Neutrophils were purified with EasySep neutrophil enrichment kit (Stemcell technol.) from human peripheral blood after removal of red blood cells with Hetasep (Stemcell technol.).

[4] = system: MIAPaCa2 human pancreatic carcinoma cells; experiment: MIAPaCa2 subcutaneous xenograft in scid mice; assay type: in vivo, mouse
Method: Day0 indicates treatment initiation. Mean tumor sizes with standard deviation for each treatment group are indicated on the Y-axis and the number of days following treatment initiation are indicated on the X-axis.
To study in vivo efficacy of the compounds, MIAPaCa2 human pancreatic carcinoma cells were implanted subcutaneously in scid mice. The treatment was initiated when the size of the primary tumor became 0.1 cm3 (Day0) or larger, e.g., 7 or 8 mm in diameter. CDDP (3 mg/kg) and CBP 501 (10 or 40 mg/kg) were intra-peritoneally administered alone or in combination. Tumor sizes were measured using calipers three times a week, and volumes were calculated using the formula: weight (mg)=[width (mm)2×length (mm)]/2. Mean tumor sizes for each treatment group are plotted (n=4) against the days after the start of treatment (FIG. 10).

With `N=C(N)NCCC[C@@H](NC(=O)[C@@H](CCCNC(=N)N)NC(=O)[C@@H](CCC(N)=O)NC(=O)[C@@H](CCCNC(=N)N)NC(=O)[C@@H](CCCNC(=N)N)NC(=O)[C@@H](CCCNC(=N)N)NC(=O)[C@@H](CC1CCCCC1)NC(=O)[C@@H](Cc1c(F)c(F)c(F)c(F)c1F)NC(=O)[C@@H](CO)NC(=O)[C@@H](Cc1c[nH]c2ccccc12)NC(=O)[C@@H](CO)NC(=O)[C@H](N)Cc1ccc(C(=O)c2ccccc2)cc1)C(=O)O` [CBP501, (d-Bpa)(d-Ser)(d-Trp)(d-Ser)(d-Phe-2,3,4,5,6-F)(d-Cha)(d-Arg)(d-Arg)(d-Arg)(d-Gln)(d-Arg)(d-Arg)] (H-[dBpa][dS][dW][dS][dPhe(F5)][dCha][dR][dR][dR][dQ][dR][dR]-OH; N-terminus and C-terminus assumed) the half-life [1] was 3 h, the “Calreticulin exposure to the cell surface” value (calreticulin) was “Positive effect” and the “Thrombin/anti-thrombin complexes in vivo” value [2] was “increased thrombin/anti-thrombin complexes”. For the same molecule, the “Growth of normal cells (HUVEC)” value (HUVEC) was “does not affect the growth of HUVEC cells”, the “CD8 (=CD45+CD8+) infiltration at tumor site, combined with CDDP and anti-PD1 antibody” value (CT26WT; CDDP 4 mg/kg + CBP501 6 mg/kg + anti-PD1 400 ug/mouse) was “statistically significant” and the “CD8 (=CD45+CD8+) infiltration at tumor site, combined with CDDP” value (CT26WT; CDDP 4 mg/kg i.v. + CBP501 6 mg/kg i.v.) was “tended to increase”. The “M2 macrophages (=F4/80+CD206+) in tumor” value (CT26WT; combined with CDDP or CDDP plus anti-PD1 antibody) was “decreased M2 macrophages”, the “G2 checkpoint abrogating dose of CBP501, cis-platin” value (from here on “G2 checkpoint abrogating dose”) (HCT116) was <2 µM and the “G2 checkpoint abrogating dose” value (HT-29) was <2 µM. For the same molecule, the “G2 checkpoint abrogating dose” value (MK45) was >10 µM, the “G2 checkpoint abrogating dose” value (SW620) was >10 µM and the “G2 checkpoint abrogating dose” value (NCI-H520) was >10 µM. The “G2 checkpoint abrogating dose” value (SK-OV-3) was 50 µM, the “G2 checkpoint abrogating dose” value (NCI-H226) was 0.4 µM and the “Residual peptide after 1 hr mouse serum treatment (Mouse serum treatment analysis)” value [3] was >90%. For the same molecule, the “Potency in changing cell cycle phase distribution, CDDP combined with CBP501 vs CDDP alone” value (CT26WT cells) was “about 2 times”, the IC50 (MIAPaCa2; read-out: IC50 24 hr, CBP501 with 10 uM cisplatin, with 10 uM cisplatin, additional 24 hour) was 0.6 µM and the IC50 (MIAPaCa2; read-out: IC50 24 hr, additional 24 hour) was 6 µM. The IC50 (MIAPaCa2; read-out: IC50 48 hr, CBP501 with 10 uM cisplatin, with 10 uM cisplatin, additional 48 hour) was 1 µM, the IC50 (MIAPaCa2; read-out: IC50 48 hr, additional 48 hour) was 10 µM and the IC50 (MIAPaCa2; read-out: IC50 72 hr, CBP501 with 10 uM cisplatin, with 10 uM cisplatin, additional 72 hour) was 6 µM. For the same molecule, the IC50 (MIAPaCa2; read-out: IC50 72 hr, additional 72 hour) was 13 µM, the Solubility in water (Solubility in water) was “soluble in water” and the “NET formation by activated neutrophils” value (neutrophils) was “increased NET formation”. For the same molecule, the “Tumor growth, CBP501 treatment alone” value ([4]; CBP501 10 or 40 mg/kg ip) was “suppresses the growth of human pancreatic cancer cell in vivo” and the “Anti-tumor activity of cisplatin in combination with CBP501” value ([4]; CDDP 3 mg/kg and CBP501 10 or 40 mg/kg ip) was “increased the anti-tumor activity of cisplatin”.
